According to patent US8759366B2, “Aminopyrimidines as SYK inhibitors” (Merck Sharp & Dohme Corp., priority 2009, dated 2014):

Biological target: rhSYK (Homo sapiens (Human), UniProt P43405)
Conditions: read-out: rhSYK activity

| IC50 [nM] | SMILES |
| --- | --- |
| 100 to 1000 | O=[N+]([O-])c1cc(Nc2nccc(C(F)(F)F)n2)cc(-c2cnc(C3(O)CCC3)s2)c1 [Example 18, 1-[5-(3-nitro-5-{[4-(trifluoromethyl)pyrimidin-2-yl]amino}phenyl)-1,3-thiazol-2-yl]cyclobutanol] |
| < 100 | Cc1cc(Nc2nccc(C(F)(F)F)n2)cc(-c2cnc(C3(O)CCC(CCN)CC3)s2)c1 (stereo not drawn) [Example 4C-5] |
| < 100 | OC1(c2ncc(-c3cccc(Nc4nccc(C(F)(F)F)n4)c3)s2)COC1 [Example 4B-11] |
| < 100 | Cc1cc(Nc2nccc(C(F)(F)F)n2)cc(-c2cnc(C3(O)CCC(=O)CC3)s2)c1 [Example 7, 4-hydroxy-4-[5-(3-methyl-5-{[4-(trifluoromethyl)pyrimidin-2-yl]amino}phenyl)-1,3-thiazol-2-yl]cyclohexanone] |
| < 100 | Cc1cc(Nc2nccc(C(F)(F)F)n2)cc(-c2cnc(C3(O)CCCC(C)(CC(=O)O)C3)s2)c1 (stereo not drawn) [Example 4C-22] |
| < 100 | Cc1cc(Nc2nccc(C(F)(F)F)n2)cc(-c2cnc(C(NC(=O)C3(C(N)=O)CC3)(C3CC3)C3CC3)s2)c1 [Example 67, N-{dicyclopropyl[5-(3-methyl-5-{[4-(trifluoromethyl)pyrimidin-2-yl]amino}phenyl)-1,3-thiazol-2-yl]methyl}cyclopropane-1,1-dicarboxamide] |
| < 100 | CNC(=O)N1CCC(O)(c2ncc(-c3cc(C)cc(Nc4nccc(C(F)(F)F)n4)c3)s2)CC1 [Example 52, 4-hydroxy-N-methyl-4-[5-(3-methyl-5-{[4-(trifluoromethyl)pyrimidin-2-yl]amino}phenyl)-1,3-thiazol-2-yl]piperidine-1-carboxamide] |
| < 100 | Cc1cc(Nc2nccc(C(F)(F)F)n2)cc(-c2cnc(C3(O)CCC4(CCC(=O)N4)CC3)s2)c1 (stereo not drawn) [Example 4B-24] |
| < 100 | CC(=O)N1CCC(O)(c2ncc(-c3cc(C)cc(Nc4nccc(C(F)(F)F)n4)c3)s2)CC1 [Example 51, 1-(4-hydroxy-4-[5-(3-methyl-5-{[4-(trifluoromethyl)pyrimidin-2-yl]amino}phenyl)-1,3-thiazol-2-yl]piperidin-1-yl)ethanone] |
| < 100 | Cc1cc(Nc2nccc(C(F)(F)F)n2)cc(-c2cnc(C3(O)CN(C(C)(C)C(=O)OC(C)(C)C(=O)O)C3)s2)c1 [Example 53(2), 2-[(2-{3-Hydroxy-3-[5-(3-methyl-5-{[4-(trifluoromethyl)pyrimidin-2-yl]amino}phenyl)-1,3-thiazol-2-yl]azetidin-1-yl}-2-methylpropanoyl)oxy]-2-methylpropanoic acid] |
| 100 to 1000 | OC1(c2ncc(-c3cc(Nc4nccc(C(F)(F)F)n4)ccc3F)s2)CCC1 [Example 1, 1-[5-(2-fluoro-5-{[4-(trifluoromethyl)pyrimidin-2-yl]amino}phenyl)-1,3-thiazol-2-yl]cyclobutanol] |
| < 100 | Cc1cc(Nc2nccc(C)n2)cc(-c2cnc(C3(O)CC4(C(=O)O)CCC3(C)C4(C)C)s2)c1 (stereo not drawn) [Example 4B-32] |
| 100 to 1000 | Cc1cc(Nc2nccc(C(F)(F)F)n2)cc(-c2cnc(C3(O)CCN(c4cccc(F)c4)CC3)s2)c1 [4D-10] |
| < 100 | Cc1cc(Nc2nccc(C(F)(F)F)n2)cc(-c2cnc(C3(O)CCN(C(N)=O)CC3)s2)c1 [Example 47, 4-hydroxy-4-[5-(3-methyl-5-{[4-(trifluoromethyl)pyrimidin-2-yl]amino}phenyl)-1,3-thiazol-2-yl]piperidine-1-carboxamide] |
| < 100 | Cc1cc(Nc2nccc(C(F)(F)F)n2)cc(-c2cnc(C3(O)COC(C)(C)OC3)s2)c1 [Example 4B-14] |
| < 100 | Cc1cc(Nc2nccc(C(F)(F)F)n2)cc(-c2cnc(C3(O)CCNCC3)s2)c1 [Example 46, 4-[5-(3-methyl-5-{[4-(trifluoromethyl)pyrimidin-2-yl]amino}phenyl)-1,3-thiazol-2-yl]piperidin-4-ol] |
| < 100 | Cc1cc(Nc2nccc(C(F)(F)F)n2)cc(-c2cnc(C3(O)CCCC(O)C3(C)C)s2)c1 (stereo not drawn) [Example 8B-3] |
| < 100 | Cc1cc(Nc2nccc(C(F)(F)F)n2)cc(-c2cnc(C3CCC(=O)O3)s2)c1 (stereo not drawn) [Example 4B-60] |
